What all share (assay): growth of human tumour cells (NCI), 48 h
In experiment [1] the test system is NCI/ADR-RES ovarian.
Experiment [2] concerns NCI-H226 lung.
Experiment [3] relates to HCT-15 colon.
For experiment [4], the system named is HS 578T breast.
In experiment [5] the test system is SNB-75 CNS.
In experiment [6] the test system is MDA-MB-231 breast.
Experiment [7] deals with UACC-62 melanoma.
For experiment [8], the system named is NCI-H522 lung.
For experiment [9], the system named is 786-0 renal.
Experiment [10] deals with SF-295 CNS.
The subject of experiment [11] is MDA-MB-435.

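Test compounds were applied to cells in 96-well plates for 48 hours at 5 doses. Definition used: TGI = concentration required for complete inhibition of growth.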 Where only a bound is given, the exact number is not on record here.

With `CC(C)/C(Cl)=N\OC(=O)Nc1ccc(S(N)(=O)=O)cc1`, the TGI in [1] is 40.5 µM; in experiment [2] it was 45.5 µM; in experiment [3], 31.6 µM; in [4], 63.5 µM; in experiment [5], 25.4 µM; in experiment [6] it was 25.9 µM. The TGI in experiment [7] came out at 37 µM; in [8], 2.55 µM; in experiment [9], 31 µM; in experiment [10], 29.3 µM.
Consider `CCC12C=CCN3CCC4(C(=C(C(=O)OC)[C@@H]1O)Nc1ccccc14)C32` (stereo partly drawn), for which the TGI in experiment [2] was 2.71 µM; in [3], 3.09 µM; in [5], 5.8 µM; in experiment [7], 4.76 µM; in experiment [8] it was 3.06 µM; in [9], 3.07 µM. Moreover, the TGI in experiment [10] is 5.7 µM.
As to `CC(=O)Nc1ccc(-c2nnc(SCC(=O)Nc3ccc([N+](=O)[O-])cc3)o2)cc1`, the TGI in experiment [2] was found to be 29.5 µM; in experiment [3], 26 µM; in experiment [5], 27.6 µM; in [7], 21.5 µM; in experiment [8], 20.7 µM; in experiment [9], 23.7 µM. Besides, the TGI in [10] stood at 27.4 µM.
`Cc1ccccc1-n1c(=O)c2ncn(CCCl)c2n(-c2ccccc2C)c1=S`: the TGI in experiment [1], in experiment [2], in experiment [11], in [3], in experiment [5] and in experiment [6] was more than 100 µM each time. Moreover, the TGI in experiment [7], in experiment [8], in experiment [9] and in experiment [10] was more than 100 µM in each case.
Take `O=[N+]([O-])/C(C(Cl)=C(Cl)Cl)=C(\SCc1ccccc1)N1CCCCC1`: the TGI in [2] is 53.2 µM; in [11] it was 35.5 µM; in experiment [3], 49.7 µM; in experiment [4], more than 100 µM; in [6], 37.3 µM; in experiment [7], 72 µM. The TGI is 39 µM in experiment [8], 36.3 µM in experiment [9] and 81.9 µM in [10].
For `CC(=O)NC1=C(NCCC(C)C)C(=O)c2ccccc2C1=O`, the TGI in [2], in experiment [3], in experiment [5], in [7], in experiment [8] and in experiment [9] was more than 50 µM in each case. Also, the TGI in experiment [10] was more than 50 µM.
For the molecule `CC(C)CCCCCCCCCCCCC(=O)NCC(=O)NC1C(C)OC(Nc2ncnc3c2ncn3C)C(O)C1O` (stereo not drawn), the TGI in experiment [1] is more than 100 µM; in experiment [2], 15.2 µM; in experiment [3] it was more than 100 µM; in experiment [5], 27.9 µM; in experiment [7], more than 100 µM; in [8], 31.9 µM. In [10], the TGI was more than 100 µM.
As for `C[n+]1c2ccccc2c(/C=N\NS(=O)(=O)c2ccc(O)c(C(=O)O)c2)c2ccccc21`, the TGI in experiment [2], in experiment [3], in experiment [5], in experiment [7], in [8] and in experiment [9] was more than 100 µM in each case. The TGI in experiment [10] was more than 100 µM.
On to `O=C(NNC(=O)c1ccccc1SSc1ccccc1C(=O)NNC(=O)c1ccccc1S)c1ccccc1S`, for which the TGI in experiment [1] is more than 73.6 µM; in [2], more than 100 µM; in experiment [11] it was more than 100 µM; in experiment [3], 61.5 µM; in experiment [5], more than 49.8 µM; in experiment [6] it was more than 74.6 µM. In addition, the TGI is 54.8 µM in experiment [7], 1.67 µM in [8], 98 µM in [9] and more than 100 µM in experiment [10].
For `N.N.N.N.O=[N+]([O-])[O-].[Co+3].[N-]=[N+]=[N-].[N-]=[N+]=[N-]`, the TGI in experiment [3], in [5], in [7], in experiment [8], in [9] and in [10] was more than 100 µM each time.
In the case of `CNS(=O)(=O)NNS(=O)(=O)c1ccc2ccccc2c1`, the TGI in [2], in experiment [3], in experiment [5], in experiment [7], in experiment [8] and in experiment [9] was more than 100 µM in each case. In experiment [10], the TGI is more than 100 µM.
Regarding `COc1ccc(C2c3cc4c(cc3OC(NNS(=O)(=O)c3ccc(C)cc3)C2C)OCO4)cc1` (stereo not drawn), the TGI in experiment [2], in experiment [11], in experiment [3], in experiment [4], in [5] and in experiment [6] was more than 100 µM each time. Moreover, the TGI in experiment [7], in experiment [8], in experiment [9] and in experiment [10] was more than 100 µM throughout.
`CN(C)CC[N+]1=Nc2cccc3cccc(c23)N1`: the TGI in experiment [2] is more than 100 µM; in experiment [3], more than 100 µM; in experiment [5], more than 100 µM; in experiment [7], more than 100 µM; in experiment [8], more than 95.7 µM; in experiment [9] it was more than 100 µM. This molecule also had a TGI in experiment [10] of more than 100 µM.
`N#CN=C(N(Cc1ccccc1)Cc1ccccc1)N(Cc1ccccc1)Cc1ccccc1`: the TGI in [2], in experiment [3], in [5], in [7], in experiment [8] and in [10] was more than 100 µM each time.
Take `Cc1cn(C2CC(N(O)C(N)=O)C(CO)O2)c(=O)[nH]c1=O` (stereo not drawn): the TGI in experiment [1], in experiment [11], in experiment [3], in experiment [6], in experiment [7] and in [8] was more than 100 µM in each case. The TGI in experiment [9] and in [10] was more than 100 µM throughout.

These data come from PubChem BioAssay (NCI).
